# Laboratory results reported in PMC5516890 (Bioconjugate chemistry, 2016).
# Entries after “also recorded” stand apart in the source; their conditions may differ.
# System: NOD-SCID mice bearing isogenic PSMA^+ PC3 PIP and PSMA^− PC3 flu tumors
# Experiment: Biodistribution in tumor-bearing mice
# Settings: for PSMA^+ PIP tumor uptake: PSMA+ PC3 PIP xenograft; for PSMA^− flu tumor uptake: PSMA− PC3 flu xenograft
# [1] = 30 min postinjection, tail vein, ± SD, n = 3–4
# [2] = 60 min postinjection, tail vein, ± SD, n = 3–4
# [3] = 120 min postinjection, tail vein, ± SD, n = 3–4
# [4] = 240 min postinjection, tail vein, ± SD, n = 3–4
smiles,measurement,setting,value
"O=C(O)CCC(NC(=O)NC(CCCCNC(=O)c1ccc([18F])nc1)C(=O)O)C(=O)O (stereo not shown) [[^18F]DCFPyL, 2-(3-{1-carboxy-5-[(6-[^18F]fluoropyridine-3-carbonyl)-amino]-pentyl}-ureido)-pentanedioic acid, reference compound]",PSMA^+ PC3 PIP tumor uptake compared to [^18F]YC-88,"1, 2, and 4 h",significantly higher
same,blood uptake,[1],1.67 ± 0.54 % ID/g
same,bone uptake,[1],1.00 ± 0.51 % ID/g
same,fat uptake,[1],1.42 ± 0.51 % ID/g
same,heart uptake,[1],0.84 ± 0.16 % ID/g
same,kidney uptake,[1],135.28 ± 9.75 % ID/g
same,large intestine uptake,[1],1.17 ± 0.06 % ID/g
same,liver uptake,[1],3.54 ± 0.20 % ID/g
same,muscle uptake,[1],0.54 ± 0.05 % ID/g
same,salivary gland uptake,[1],2.60 ± 0.60 % ID/g
same,small intestine uptake,[1],0.83 ± 0.03 % ID/g
same,spleen uptake,[1],10.67 ± 1.68 % ID/g
same,stomach uptake,[1],0.90 ± 0.14 % ID/g
same,blood uptake,[2],0.72 ± 0.22 % ID/g
same,fat uptake,[2],0.84 ± 0.44 % ID/g
same,heart uptake,[2],0.32 ± 0.09 % ID/g
same,large intestine uptake,[2],0.49 ± 0.05 % ID/g
same,liver uptake,[2],3.48 ± 0.21 % ID/g
same,lung uptake,[2],1.41 ± 0.25 % ID/g
same,muscle uptake,[2],0.36 ± 0.18 % ID/g
same,pancreas uptake,[2],0.61 ± 0.21 % ID/g
same,salivary gland uptake,[2],1.57 ± 0.18 % ID/g
same,small intestine uptake,[2],0.56 ± 0.12 % ID/g
same,spleen uptake,[2],5.61 ± 0.56 % ID/g
same,stomach uptake,[2],0.50 ± 0.10 % ID/g
same,bladder (empty) uptake,[3],11.40 ± 9.95 % ID/g
same,blood uptake,[3],0.23 ± 0.05 % ID/g
same,bone uptake,[3],0.37 ± 0.05 % ID/g
same,fat uptake,[3],0.15 ± 0.02 % ID/g
same,kidney uptake,[3],61.23 ± 20.36 % ID/g
same,liver uptake,[3],3.08 ± 0.13 % ID/g
same,lung uptake,[3],0.41 ± 0.09 % ID/g
same,muscle uptake,[3],0.08 ± 0.02 % ID/g
same,pancreas uptake,[3],0.23 ± 0.05 % ID/g
same,salivary gland uptake,[3],0.43 ± 0.15 % ID/g
same,small intestine uptake,[3],0.55 ± 0.50 % ID/g
same,spleen uptake,[3],1.64 ± 0.40 % ID/g
same,stomach uptake,[3],0.21 ± 0.06 % ID/g
same,bladder (empty) uptake,[4],16.85 ± 10.15 % ID/g
same,blood uptake,[4],0.11 ± 0.00 % ID/g
same,bone uptake,[4],0.71 ± 0.40 % ID/g
same,fat uptake,[4],0.10 ± 0.05 % ID/g
same,heart uptake,[4],0.06 ± 0.01 % ID/g
same,kidney uptake,[4],19.36 ± 2.32 % ID/g
same,large intestine uptake,[4],0.83 ± 1.00 % ID/g
same,liver uptake,[4],2.30 ± 0.28 % ID/g
same,lung uptake,[4],0.16 ± 0.02 % ID/g
same,muscle uptake,[4],0.07 ± 0.04 % ID/g
same,pancreas uptake,[4],0.09 ± 0.02 % ID/g
same,salivary gland uptake,[4],0.32 ± 0.22 % ID/g
same,small intestine uptake,[4],0.16 ± 0.04 % ID/g
same,spleen uptake,[4],0.55 ± 0.11 % ID/g
same,stomach uptake,[4],0.09 ± 0.03 % ID/g
same,PSMA^+ PIP tumor uptake,[1],64.85 ± 19.22 % ID/g
same,PSMA^+ PIP tumor uptake,[2],84.29 ± 12.29 % ID/g
same,PSMA^+ PIP tumor uptake,[3],69.55 ± 1.71 % ID/g
same,PSMA^+ PIP tumor uptake,[4],74.34 ± 7.28 % ID/g
same,PSMA^− flu tumor uptake,[1],1.50 ± 0.71 % ID/g
same,PSMA^− flu tumor uptake,[2],0.46 ± 0.06 % ID/g
same,PSMA^− flu tumor uptake,[3],0.21 ± 0.06 % ID/g
same,PSMA^− flu tumor uptake,[4],0.21 ± 0.17 % ID/g
"O=C(O)CCC(NC(=O)NC(CCCCNC(=O)CCc1cn(CC[18F])nn1)C(=O)O)C(=O)O (stereo not shown) [[^18F]YC-88, 2-[3-(1-carboxy-5-{3-[1-(2-[^18F]fluoroethyl)-1H-1,2,3-triazol-yl]propanamido}pentyl)ureido]-pentanedioic acid]",difference in PSMA^+ PC3 PIP tumor uptake between [^18F]YC-88 and [^18F]DCFPyL,"30 min, P > 0.05",not statistically significant
same,salivary gland uptake compared to [^18F]DCFPyL,30 min and 1 h postinjection,significantly less; also recorded: significantly lower
same,PIP/flu uptake ratio,30 min postinjection,70
same,PIP/kidney uptake ratio (tumor-to-kidney),30 min postinjection,0.9
same,bladder (empty) uptake,[1],17.90 ± 14.18 % ID/g
same,blood uptake,[1],1.02 ± 0.43 % ID/g
same,bone uptake,[1],0.40 ± 0.16 % ID/g
same,fat uptake,[1],0.33 ± 0.08 % ID/g
same,heart uptake,[1],0.36 ± 0.18 % ID/g
same,kidney uptake,[1],44.08 ± 12.52 % ID/g
same,large intestine uptake,[1],0.87 ± 0.85 % ID/g
same,liver uptake,[1],1.70 ± 0.21 % ID/g
same,lung uptake,[1],1.09 ± 0.31 % ID/g
same,muscle uptake,[1],0.22 ± 0.07 % ID/g
same,pancreas uptake,[1],0.44 ± 0.13 % ID/g
same,salivary gland uptake,[1],0.85 ± 0.39 % ID/g
same,small intestine uptake,[1],0.37 ± 0.11 % ID/g
same,spleen uptake,[1],1.67 ± 0.46 % ID/g
same,stomach uptake,[1],0.41 ± 0.14 % ID/g
same,PIP/flu uptake ratio,60 min postinjection,170
same,PIP/kidney uptake ratio (tumor-to-kidney),60 min postinjection,2.4
same,bladder (empty) uptake,[2],7.78 ± 4.15 % ID/g
same,blood uptake,[2],0.29 ± 0.08 % ID/g
same,bone uptake,[2],0.16 ± 0.04 % ID/g
same,fat uptake,[2],0.31 ± 0.18 % ID/g
same,heart uptake,[2],0.18 ± 0.06 % ID/g
same,kidney uptake,[2],20.08 ± 8.09 % ID/g
same,large intestine uptake,[2],0.27 ± 0.14 % ID/g
same,liver uptake,[2],1.73 ± 0.14 % ID/g
same,lung uptake,[2],0.49 ± 0.24 % ID/g
same,muscle uptake,[2],0.11 ± 0.06 % ID/g
same,pancreas uptake,[2],0.16 ± 0.06 % ID/g
same,salivary gland uptake,[2],0.31 ± 0.07 % ID/g
same,small intestine uptake,[2],0.23 ± 0.04 % ID/g
same,spleen uptake,[2],0.69 ± 0.23 % ID/g
same,stomach uptake,[2],0.34 ± 0.20 % ID/g
same,PIP/flu uptake ratio,120 min postinjection,243
same,PIP/kidney uptake ratio (tumor-to-kidney),120 min postinjection,4
same,bladder (empty) uptake,[3],4.33 ± 2.64 % ID/g
same,blood uptake,[3],0.28 ± 0.23 % ID/g
same,bone uptake,[3],0.37 ± 0.36 % ID/g
same,fat uptake,[3],0.17 ± 0.10 % ID/g
same,heart uptake,[3],0.07 ± 0.02 % ID/g
same,kidney uptake,[3],10.20 ± 2.76 % ID/g
same,large intestine uptake,[3],0.31 ± 0.13 % ID/g
same,liver uptake,[3],1.74 ± 0.23 % ID/g
same,lung uptake,[3],0.22 ± 0.10 % ID/g
same,muscle uptake,[3],0.10 ± 0.03 % ID/g
same,pancreas uptake,[3],0.11 ± 0.06 % ID/g
same,salivary gland uptake,[3],0.25 ± 0.07 % ID/g
same,small intestine uptake,[3],0.18 ± 0.07 % ID/g
same,spleen uptake,[3],0.29 ± 0.16 % ID/g
same,stomach uptake,[3],0.12 ± 0.07 % ID/g
same,PIP/flu uptake ratio,240 min postinjection,368
same,PIP/kidney uptake ratio (tumor-to-kidney),240 min postinjection,6.7
same,bladder (empty) uptake,[4],1.22 ± 0.89 % ID/g
same,blood uptake,[4],0.12 ± 0.04 % ID/g
same,bone uptake,[4],0.11 ± 0.03 % ID/g
same,fat uptake,[4],0.10 ± 0.04 % ID/g
same,heart uptake,[4],0.04 ± 0.01 % ID/g
same,kidney uptake,[4],3.84 ± 0.29 % ID/g
same,large intestine uptake,[4],0.23 ± 0.09 % ID/g
same,liver uptake,[4],1.45 ± 0.14 % ID/g
same,lung uptake,[4],0.13 ± 0.02 % ID/g
same,muscle uptake,[4],0.06 ± 0.03 % ID/g
same,pancreas uptake,[4],0.07 ± 0.02 % ID/g
same,salivary gland uptake,[4],0.14 ± 0.02 % ID/g
same,small intestine uptake,[4],0.14 ± 0.03 % ID/g
same,spleen uptake,[4],0.15 ± 0.05 % ID/g
same,stomach uptake,[4],0.06 ± 0.02 % ID/g
same,PSMA^+ PIP tumor uptake,[1],40.31 ± 5.13 % ID/g
same,PSMA^+ PIP tumor uptake,[2],47.58 ± 5.19 % ID/g
same,PSMA^+ PIP tumor uptake,[3],41.29 ± 4.22 % ID/g
same,PSMA^+ PIP tumor uptake,[4],25.74 ± 7.33 % ID/g
same,PSMA^− flu tumor uptake,[1],0.58 ± 0.23 % ID/g
same,PSMA^− flu tumor uptake,[2],0.28 ± 0.13 % ID/g
same,PSMA^− flu tumor uptake,[3],0.17 ± 0.03 % ID/g
same,PSMA^− flu tumor uptake,[4],0.07 ± 0.01 % ID/g
same,"kidney, liver, and spleen uptake compared to [^18F]DCFPyL","all time points, two-tailed Student's t test",significantly lower
same,difference in PSMA^− PC3 flu tumor uptake between the two radiotracers,any time,no significant difference
same,bone uptake,at all time points,< 1 % ID/g
